Experimental data: the NIST ThermoML archive (doi:10.1016/j.fluid.2010.02.029)
± gives the expanded uncertainty stated by the source.

Key:
[1] = 101.33 kPa, Crystal, radial heat flow
[2] = xn = mol fraction of the nth substance listed; details: 101 kPa, radial heat flow

[Bi] [bismuth]
thermal conductivity ([1]; 382.65 K): 8.35 ± 1.2 W/m/K | thermal conductivity ([1]; 418.7 K): 8.12 ± 1.1 W/m/K

[Cd] [cadmium] + [Bi]
thermal conductivity ([2]; 418.7 K, Crystal, x2 = 0.5504): 12.46 ± 1.7 W/m/K | thermal conductivity ([2]; 418.7 K, Liquid, x2 = 0.5504): 10.06 ± 1.4 W/m/K

[In] [indium] + [Bi]
thermal conductivity ([2]; 382.65 K, Crystal, x2 = 0.527): 13.25 ± 1.9 W/m/K | thermal conductivity ([2]; 382.65 K, Liquid, x2 = 0.527): 10.6 ± 1.5 W/m/K
